Measurements as given in paper PMC11077815, “Synthesis and antitumor activity of dolutegravir derivatives bearing 1,2,3-triazole moieties” (BMC Chemistry, 2024).

Assays:
Assay type in all cases: cell-based, Human
[1] = system: PC-9; test: CCK8 cell viability assay, PC-9; conditions: for Cell viability (100%): PC9, 20 µM, 48 h, CCK8, control = 100%; for IC50: PC9, 48 h, CCK8, mean ± SE
Protocol: (§1) At first, CCK8 assay was carried out to evaluate the anti-proliferative activity of dolutegravir-1,2,3-triazole derivatives against different cancer cell lines. The results of cell viability of three lung cancer cell lines A549, PC-9 and H460 in the presence of compounds 9 and 10 are summarized in Table 2. Cells were treated with different compounds at the concentration of 20 µM for 48 h. […] Human lung cancer cell lines A549, PC-9 and H460 were all obtained from ATCC. Cells were cultured in DMEM or RPMI 1640 medium containing 10% FBS and 1% penicillin/streptomycin at 37 °C with a 5% CO2-humidified atmosphere. CCK8 assay was used to measure cell viability. Cells with a density of 1 × 10^4 cells/well were seeded on the 96-well plates. After adhesion, cells were treated with different diluted compounds or vehicle control DMSO and continue cultured for 48 h. Then, CCK8 reagent was added for one hour incubation at 37 °C with 5% of CO2. Absorbance was measured using a microplate spectrophotometer (Thermo) at 450 nm. The ratio of cell viability of control was taken as 100%. […] Then IC50 of the compounds were investigated using the prism statistical software.

[2] = system: H460; test: CCK8 cell viability assay, H460; conditions: for Cell viability (100%): H460, 20 µM, 48 h, CCK8, control = 100%; for IC50: H460, 48 h, CCK8, mean ± SE
Protocol: as §1

[3] = system: PC-9; test: LIVE/DEAD staining, PC-9; conditions: PC-9, 5, 10 or 20 µM, 24 h
Protocol: LIVE/DEAD staining experiments were carried out to evaluate the anti-proliferative activity of dolutegravir derivatives 9e and 9p against PC-9 and H460 cell lines. The tumor cells were treated with 5 µM, 10 µM or 20 µM of 9e and 9p for 24 h. The live and dead cells were photographed and counted.
PC-9 and H460 cells with a density of 5 × 10^3 cells/well were seeded on the 96-well plates. Then different concentrations (0, 5 µM, 10 µM, 20 µM) of 9e or 9p were treated for 24 h. Cells were then stained with the LIVE/DEAD Assay Kit, observed and photographed using the fluorescent microscope.

[4] = system: H460; test: Apoptosis assay (Annexin V-FITC/PI flow cytometry), H460; conditions: 48 h
Protocol: Further, the effects of 9e and 9p on the apoptosis of tumor cells were studied to get details of the suppression of cell proliferation caused by these compounds. PC-9 and H460 cells treated with different concentrations of 9e or 9p were stained with Annexin V-FITC and PI, and the numbers of apoptosis cells were analyzed by the flow cytometry.
PC-9 and H460 cells were cultured in 6-well plates with a density of 3 × 10^5 cells/well. Different concentrations of 9e or 9p were added to cells for 48 h respectively. The concentrations were 0, 2, 4, and 8 µM for PC-9 cells and 0, 4, 8 and 16 µM for H460 cells. After treatment, Annexin V-FITC Apoptosis Detection Kit was used to determine the apoptotic ratio and FlowJo software v10 was used to analyze of the results.

[5] = system: PC-9; test: Cell cycle assay (PI staining, flow cytometry), PC-9; conditions: 48 h
Protocol: (§2) Cancer cell lines PC-9 and H460 were then treated for 48 h with 9e or 9p at different concentrations to investigate the effects of these compounds on regulating the cell cycle. Cell cycle distributions were analyzed using the flow cytometry technique.
(§3) PC-9 and H460 cells were cultured in 6-well plates with a density of 3 × 10^5 cells/well. Cells were treated with different concentrations (0, 4, and 8 µM for PC-9 cells and H460 cells) of 9e or 9p for 48 h respectively. Then the cell cycle was determined by PI staining with the flow cytometer.

[6] = system: H460; test: Cell cycle assay (PI staining, flow cytometry), H460; conditions: H460, 48 h, 4 and 8 µM
Protocol: as §2, §3

[7] = system: CyclinD; test: Western blot of CyclinD in PC-9 cells; conditions: PC-9, 0, 2, 4, 8 µM, 48 h
Source text: (§4) To determine the role of compounds 9e and 9p on regulating the development of cell proliferation, expressions of key proteins which were involved in cell growth progresses such as autophagy, apoptosis, cell cycle and DNA damage were examined. Ubiquitin like molecule light chain 3 (LC3) is a key marker of autophagy. […] Caspase3, which is one of the key proteins in regulating apoptosis, however, was not changed in tumor cells after treated with 9e or 9p. Cell cycle regulation proteins such as CyclinD, CyclinE or β-catenin were also not affected when PC-9 was treated with 9e or 9p. Further, H2AX variant histone (γ-H2AX), which was responsible for DNA damage, was also not affected when PC-9 were treated with 9e or 9p.
(§5) Protein expression levels were measured by western blot. PC-9 cells were cultured in 12-well plates and different concentrations (0, 2, 4, 8µM) of 9e and 9p were added for 48 h. Proteins were extracted from whole cells using radioimmunoprecipitation assay (RIPA). Buffer containing protease/phosphatase inhibitor cocktail (CST). Sodium dodecyl sulfate (10-15%) polyacrylamide gel electrophoresis and nitrocellulose membranes (Millipore) were used to separate and collect proteins. Antibodies used include, LC3 (3868s, CST), Caspase3 (9662, CST), cyclin D (2922s, CST), cyclin E (20808s, CST), γ-H2AX (9718s, CST), and β-actin (4967s, CST).

[8] = system: β-catenin; test: Western blot of β-catenin in PC-9 cells; conditions: PC-9, 0, 2, 4, 8 µM, 48 h
Source text: as §4, §5

SMILES	Cell viability (100%) [1]	IC50 [1]	Cell viability (100%) [2]	IC50 [2]	number of live cells [3]	ratio of dead/live cells [3]	cell apoptosis ([4]; H460, 4 µM, 8 µM and 16 µM)	effect on cell cycle ([5]; PC-9, 4 µM and 8 µM)	effect on cell cycle [6]	CyclinD expression [7]	β-catenin expression [8]	cell apoptosis ([4]; H460, 8 µM and 16 µM)	effect on cell cycle ([5]; PC-9, 4 µM)	effect on cell cycle ([5]; PC-9, 8 µM)
COc1c2n(cc(C(=O)Nc3cccc(-c4cn(-c5cccc(C(F)(F)F)c5)nn4)c3)c1=O)C[C@@H]1OCC[C@@H](C)N1C2=O [Compound 9p]	2.11%	3.17 ± 0.18 µM	5.63%	10.7 ± 0.48 µM	decreased with the increase of concentration	increased compared with untreated group but not completely in a dose dependent manner	significantly increased apoptosis	induced an S and G2/M cell cycle arrest	significantly decrease the S phase	not affected	not affected	–	–	–
COc1c2n(cc(C(=O)Nc3cccc(-c4cn(-c5cccc([N+](=O)[O-])c5C)nn4)c3)c1=O)C[C@@H]1OCC[C@@H](C)N1C2=O [Compound 9e]	24.05%	3.83 ± 0.73 µM	30.94%	11.8 ± 2.31 µM	decreased significantly in a dose dependent manner	increased significantly with the increase of concentration	–	–	increased G2/M phase and had little influences on G0/G1 or S phase	not affected	not affected	significant increased apoptosis	moderate effects on cell cycle	decreased G0/G1 phase and increased S and G2/M phase
